According to paper PMC6278366, “Synthesis and Evaluation of Anticancer Activities of Novel C-28 Guanidine-Functionalized Triterpene Acid Derivatives” (Molecules, 2018):
Structures can show the parent of a compound that is named as a salt.

Tests used:
Jurkat cells = assay: Annexin V/7-AAD apoptosis assay by flow cytometry; format: cell-based, human; conditions: 48 h
Description: Apoptosis was determined by flow cytometric analysis of Annexin V and 7-aminoactinomycin D staining. Briefly, 200 μL of Guava Nexin reagent (Millipore, Bedford, MA, USA) was added to 5 × 10^5 cells in 200 μL, and the cells were incubated with the reagent for 20 min at room temperature in the dark. […] At the end of incubation, the cells were analyzed on NovoCyteTM 2000 FlowCytometry System (ACEA). Different states of cell death were defined as follows: normal cells are localized in the lower-left quadrant (Annexin V^−/PI^−); early apoptotic cells are in the lower-right quadrant (Annexin V^+/PI^−); late apoptotic cells and necrotic cells are in the upper-right quadrant (Annexin V^+/PI^+); and necrotic cells are in the upper-left quadrant (Annexin V^−/PI^+).
Figure 2 AnnexinV/7-AAD staining upon induction of apoptosis in Jurkat cells. […] Then, the cells were harvested, stained with Annexin V/7-AAD and analyzed by flow cytometry. The experiments were performed three times, and the results of the representative experiments are shown. The first cytogram represents an untreated cell sample (A); after incubation with dihydrobetulinic acid for 24 h (B) and for 48 h (C); after incubation with compound 15 for 24 h (D) and for 48 h (E); after incubation with compound 15c for 24 h (F) and for 48 h (G); after incubation with compound 18c for 24 h (H) and for 48 h (I); after incubation with compound 20c for 24 h (J) and for 48 h (K). Q7-1, necrotic cells; Q7-2, late apoptotic cells; Q7-3, living cells; Q7-4, early apoptotic cells. TEXT PRINTED IN THE PICTURE: (B) Dihydro BA: Q7-1 0.96% (59 μM); Q7-2 12.11% (59 μM); Q7-3 80.09% (59 μM); Q7-4 6.84% (59 μM) | (C) Dihydro BA: Q7-1 2.34% (59 μM); Q7-2 20.53% (59 μM); Q7-3 73.11% (59 μM); Q7-4 4.02% (59 μM) | (D) Compound 15: Q7-1 3.08% (4 μM); Q7-2 2.24% (4 μM); Q7-3 92.34% (4 μM); Q7-4 2.34% (4 μM) | (E) Compound 15: Q7-1 5.53% (4 μM); Q7-2 91.79% (4 μM); Q7-3 0.58% (4 μM); Q7-4 2.10% (4 μM) | (F) Compound 15c: Q7-1 1.51% (4 μM); Q7-2 2.64% (4 μM); Q7-3 84.92% (4 μM); Q7-4 10.93% (4 μM) | (G) Compound 15c: Q7-1 21.72% (4 μM); Q7-2 16.54% (4 μM); Q7-3 54.49% (4 μM); Q7-4 7.25% (4 μM) | (H) Compound 18c: Q7-1 1.48% (4 μM); Q7-2 3.70% (4 μM); Q7-3 91.14% (4 μM); Q7-4 3.67% (4 μM) | (I) Compound 18c: Q7-1 20.73% (4 μM); Q7-2 14.32% (4 μM); Q7-3 58.16% (4 μM); Q7-4 6.79% (4 μM) | (J) Compound 20c: Q7-1 3.78% (8 μM); Q7-2 1.72% (8 μM); Q7-3 92.26% (8 μM); Q7-4 2.24% (8 μM) | (K) Compound 20c: Q7-1 6.09% (8 μM); Q7-2 7.35% (8 μM); Q7-3 78.36% (8 μM); Q7-4 8.20% (8 μM) DOUBTS OF THE COPYIST ABOUT THIS PICTURE: Panel A (Control, untreated cells: Q7-1 3.75%, Q7-2 0.00%, Q7-3 96.24%, Q7-4 0.01%) left out of lines because it is not a substance / Dihydro BA panel B, Q7-3: 80.09% partly overlaid by plot points, 80.09 or 80.03 / Dihydro BA panel C, Q7-3: 73.11% partly overlaid by plot points / Compound 18c panel I, Q7-3: 58.16% small print, 58.16 or 58.18 / Compound 15 panel E, Q7-3: 0.58% small print, 0.58 or 0.56

[1] = test system: HeLa (cervical cancer) cells; assay: Cytotoxicity assay (7-AAD viability, flow cytometry), HeLa; format: cell-based, human; conditions: Homo sapiens, HeLa, mean ± SE, at least three experiments in duplicate; viable cells
Procedure, shortened: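 Adherent HeLa, HEK293 and normal human fibroblasts (5 × 10⁴/well, DMEM with 10% FBS, 37 °C, 5% CO2) were treated with compounds at 1, 5, 10, 15, 30 and 60 μM. Viability was read as 7-AAD exclusion by flow cytometry after 15 min staining.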

[2] = at IC50 concentration (59 μM Dihydro BA; 4 μM 15, 15c, 18c; 8 μM 20c)

Structure (SMILES)	late apoptotic cells (Q7-2) (Jurkat cells; [2])	IC50 [1]	early apoptotic cells (Q7-4) (Jurkat cells; [2])	living (vital) cells (Q7-3) (Jurkat cells; [2])	necrotic cells (Q7-1) (Jurkat cells; [2])	total number of apoptotic cells (early + late) (Jurkat cells; at IC50 concentration (59 μM Dihydro BA; 4 μM 15c; 8 μM 20c))
CC(=O)O[C@H]1CC[C@@]2(C)C(CC[C@]3(C)C2CCC2C4C(C(C)C)CC[C@]4(C(=O)OCC(N)(CO)CO)CC[C@]23C)C1(C)C (stereo partly drawn) [Compound 15, 3β-[2-Amino-3-hydroxy-2-(hydroxymethyl)propyl]-3-O-acetyl-lupane-28-oate]	91.7%	19 ± 0.49 µM				
CC(=O)O[C@H]1CC[C@@]2(C)C(CC[C@]3(C)C2CCC2C4C(C(C)C)CC[C@]4(C(=O)OCC(CO)(CO)NC(=N)N)CC[C@]23C)C1(C)C (stereo partly drawn) [Compound 15c, 3β-[2-Guanidine-3-hydroxy-2-(hydroxymethyl)propyl]-3-O-acetyl-lupane-28-oate hydrochloride]	16.5%	14 ± 0.31 µM	7.2%	54.5%	21.7%	23.7%
